Patent US12410161B2, “Tetrahydrobenzo-quinoline sulfonamides derivative compounds” (UCB Biopharma SRL, priority 2019, dated 2025)

Experiments:
[1] = molecular target: T1, IgE-Tb binding to sFcεR1α-Y131A-AF488 (Homo sapiens, UniProt P01854, N146Q/N252Q); assay: In vitro FRET assay of IgE-Tb binding to sFcεR1α receptor (protocol for examples 9 and 10, 18 hours incubation); conditions: examples 9 and 10: compound incubated 30 minutes with IgE-Tb before sFcεR1α-Y131A-AF488; incubated 18 hours at room temperature; read-out: FRET IC50 range
T1 construct: fused on or other part: LanthaScreen amine-reactive terbium chelate label on IgE-Fc (about 4 Tb per IgE-Fc)
Description: In vitro Biochemical Assay:
Protocol for preparation of IgE-Tb reagent
86 nmoles of IgE-Fc(N265Q, N371Q) (Young et al., 1995) at 172 μM in 100 mM NaHCO3, pH 9.5 was added to 1 mg of LanthaScreen™ Amine Reactive Tb Chelate (ThermoFisher catalogue number PV3583) and incubated for 16 hours at 20° C. The material was then buffer exchanged into Phosphate Buffered Saline (being, 137 mM NaCl, 2.7 mM KCl, 10 mM Na2HPO4, 1.8 mM K2HPO4, pH 7.4) and the material quantified and the degree of Tb conjugation determined by measuring the absorption at 280 nm and 343 nm.
(§1) The integrity of the conjugated material was determined by analytical size exclusion chromatography on a 5200 HR 10×300 column (GE Healthcare). […]
175 nmoles of protein was added to 1 mg of Alexa Fluor™ 488 hydrazide (Invitrogen) and incubated for 16 hours at 22° C. […] The protein was buffer exchanged into Phosphate Buffered Saline (being, 137 mM NaCl, 2.7 mM KCl, 10 mM Na2HPO4, 1.8 mM K2HPO4, pH 7.4) and the material quantified and the degree of Alexa Fluor™ 488 conjugation determined by measuring the absorption at 280 nm and 495 nm.
as §1
The aim was to measure binding of IgE-Tb to receptor, and the inhibition thereof by compounds, using an in vitro Fluorescence Resonance Energy Transfer (FRET) Assay. […]

[2] = molecular target: T2, IgE-Tb binding to soluble IgE receptor FcεRIα-Y131A-AF488 (Homo sapiens, UniProt P0DOX4, N265Q/N371Q); assay: In vitro FRET assay of IgE-Tb binding to FcεRIα receptor (protocol for most examples, 2 hours incubation); conditions: 5 nM IgE-Tb, 25 nM FcεRIα-Y131A-AF488; incubated 2 hours at room temperature; read-out: FRET IC50 range
T2 construct: 86 nmoles of IgE-Fc(N265Q, N371Q) (Young et al., 1995)
Description: In vitro Biochemical Assay: Protocol for preparation of IgE-Tb reagent 86 nmoles of […]) (Young et al., 1995) at 172 μM in 100 mM NaHCO3, pH 9.5 was added to 1 mg of LanthaScreenTM Amine Reactive Tb Chelate (ThermoFisher catalogue number PV3583) and incubated for 16 hours at 20° C. The material was then buffer exchanged into Phosphate Buffered Saline (being, 137 mM NaCl, 2.7 mM KCl, 10 mM Na2HPO4, 1.8 mM K2HPO4, pH 7.4) and the material quantified and the degree of Tb conjugation determined by measuring the absorption at 280 nm and 343 nm. The integrity of the conjugated material was determined by analytical size exclusion chromatography on a 5200 HR 10×300 column (GE Healthcare). Typical conjugation ratios were 4:1 Tb:IgE-Fc. • Young R J., Owens, […]., Chan C M W., Shi J., Hide […]., Henry A J., Sutton B J., and Gould H J (1995) Protein Engineering 8:193-199 Protocol for preparation of […] reagent […] Oxidation was quenched with the addition of 40 μl of ethanediol and incubation for 60 minutes at 22° C. The protein was buffer exchanged in to conjugation buffer (50 mM NaHCO3, 150 mM NaCl, pH 9.5) and concentrated to 750 μM. 175 nmoles of protein was added to 1 mg of Alexa FluorTM 488 hydrazide (Invitrogen) and incubated for 16 hours at 22° C. […] The protein was buffer exchanged into Phosphate Buffered Saline (being, 137 mM NaCl, 2.7 mM KCl, 10 mM Na2HPO4, 1.8 mM K2HPO4, pH 7.4) and the material quantified and the degree of Alexa FluorTM 488 conjugation determined by measuring the absorption at 280 nm and 495 nm. The integrity of the conjugated material was determined by analytical size exclusion chromatography on a 5200 HR 10×300 column (GE Healthcare). Typical conjugation ratios were 2:1 Alexa FluorTM488: sFcεR1α • Cook J P D., Henry […]., Owens R J., Sutton B J., and Gould H J (1997) Biochemistry 36:15579-15588 The aim was to measure binding of IgE-Tb to receptor, and the inhibition thereof by compounds, using an in vitro Fluorescence Resonance Energy Transfer (FRET) Assay. Reagents FRET reagents used were IgE labelled with Terbium (FRET donor), and soluble IgE receptor FcεRIα with a Y131A mutation, labelled with Alexa FluorTM 488 (FRET acceptor). Unlabelled FcεRIα was also used to generate a background control. The assay buffer consisted of 20 mM Tris pH7.2, 150 mM NaCl, and 0.002% Tween, 1% DMSO. Assay Reaction For most of the examples the assay was conducted according to the following: Each assay reaction was conducted in a volume of 25 μl in a 384-well half-volume plate. 10 point compound serial dilutions (3-fold) were generated in DMSO at a concentration of ×50 that of the final assay concentration (FAC). Compound solutions were then prepared by IgE-Tb diluting 10-fold in assay buffer. For the assay, 5 μl of diluted compound was added to 10 μl of IgE-Tb, followed by addition of 10111 FcεRIα-Y131A-AF488. FRET reagents FACs were 5 nM IgE-Tb, 25 nM FcεRIα-Y131A-AF488. Usually the top FAC of compound in the assay was 10 μM. The final DMSO concentration was 2%. The minimum signal (MIN) was measured by adding 5 μl unlabelled FcεRIα at 1 μM (FAC=200 nM) to the FRET reagents. The maximum FRET signal (MAX) was measured in wells containing FRET reagents but no compound. The assay was incubated for 2 hours at room temperature, protected from light and evaporation, and with gentle agitation. FRET Measurement Measurement of FRET for each well was carried out by exciting at 330 nm and measuring emission at 495/520 nm using an Envision plate reader (Perkin Elmer). FRET ratio was calculated as follows: Emission at 520/Emission at 495×1000. The FRET ratio was used for the data analysis. Data Analysis Z' was calculated as follows (σ=standard deviation and μ=mean): 1-((3×σMAX)+(3×σMIN))/(μMAX-/μMIN) Z' above 0.5 was considered a good assay. Background signal (MIN) was subtracted from all wells. Using the background subtracted values, the percent inhibition by compound in each test-well was calculated as follows: 100-Test-well FRET ratio/MAX FRET ratio×100. […]

T1 sequence (P01854 whole entry N146Q/N252Q, the tested form may be a part): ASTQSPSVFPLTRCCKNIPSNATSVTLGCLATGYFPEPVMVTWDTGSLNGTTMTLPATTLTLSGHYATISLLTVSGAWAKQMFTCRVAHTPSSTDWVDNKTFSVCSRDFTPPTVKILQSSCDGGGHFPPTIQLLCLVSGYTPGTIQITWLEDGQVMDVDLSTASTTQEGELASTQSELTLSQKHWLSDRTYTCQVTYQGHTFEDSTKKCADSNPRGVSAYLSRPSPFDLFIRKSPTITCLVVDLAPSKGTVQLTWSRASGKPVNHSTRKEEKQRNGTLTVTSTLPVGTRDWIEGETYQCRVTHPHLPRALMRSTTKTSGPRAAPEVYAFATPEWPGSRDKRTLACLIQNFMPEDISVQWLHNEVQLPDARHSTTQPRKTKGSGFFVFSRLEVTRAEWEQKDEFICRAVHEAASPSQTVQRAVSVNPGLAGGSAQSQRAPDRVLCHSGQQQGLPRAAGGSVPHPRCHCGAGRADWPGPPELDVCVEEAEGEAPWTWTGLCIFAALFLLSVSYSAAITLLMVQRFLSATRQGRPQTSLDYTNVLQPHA
T2 sequence (P0DOX4 224-547 N265Q/N371Q limits assumed): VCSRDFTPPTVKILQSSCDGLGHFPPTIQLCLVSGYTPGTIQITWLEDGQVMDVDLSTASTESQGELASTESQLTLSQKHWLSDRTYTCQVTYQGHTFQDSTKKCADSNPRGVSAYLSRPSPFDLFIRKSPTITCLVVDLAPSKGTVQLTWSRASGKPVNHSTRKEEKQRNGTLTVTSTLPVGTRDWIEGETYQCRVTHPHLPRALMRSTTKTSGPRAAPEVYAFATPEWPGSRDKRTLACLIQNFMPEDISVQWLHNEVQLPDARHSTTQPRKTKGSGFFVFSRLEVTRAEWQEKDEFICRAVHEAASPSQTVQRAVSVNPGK

**Q.** `CC(C)CNS(=O)(=O)c1c2c(cc3c1NC(C1CC1)=NO3)CCCC2` [Example 10, 3-cyclopropyl-N-isobutyl-6,7,8,9-tetrahydro-4H-benzo[g][1,2,4]benzoxadiazine-5-sulfonamide] was tested. Which IC50 [1] did it give?
**A.** 50 to 100 nM

**Q.** How did the IC50 [1] turn out when `CC(C)CNS(=O)(=O)c1c2c(cc3oc(C4CC4)nc13)CCC(n1cnnc1Nc1cc(C(F)F)nn1C)C2` (stereo not drawn) [Example 9, 2-cyclopropyl-6-[3-[[5-(difluoromethyl)-2-methylpyrazol-3-yl]amino]-1,2,4-triazol-4-yl]-N-(2-methylpropyl)-5,6,7,8-tetrahydrobenzo[f][1,3]benzoxazole-4-sulfonamide] was run?
**A.** 50 to 100 nM

**Q.** Which IC50 [2] does the source give for `CCNc1c(NC2CCc3cc4cnc(C5CC5)cc4c(S(=O)(=O)NCC(C)C)c3C2)c(=O)c1=O` (stereo not drawn) [Example 19, 3-cyclopropyl-7-[[2-(ethylamino)-3,4-dioxocyclobuten-1-yl]amino]-N-(2-methylpropyl)-6,7,8,9-tetrahydrobenzo[g]isoquinoline-5-sulfonamide] here?
**A.** 1 to 50 nM
